Data as given in patent publication US11643439B2, “Multi-target compound with anticoagulation and antiplatelet activity, preparation method therefor, and use thereof” (SHAANXI MICOT TECHNOLOGY LIMITED COMPANY, priority 2015, dated 2023).

Tests used:
[1] = tested on: femoral arterial and venous bypass thrombosis; experiment: Femoral arterial and venous bypass thrombosis in rabbits, single intravenous administration; type: in vivo, rabbit; conditions: single iv 6.0 mg/kg, 15 min
Description: (§1) 1. Grouping and administration: 48 Rabbits were randomly divided into 6 groups, 8 rabbits per group. 1) Sham operation group (NS): Intravenous injection of the same volume of physiological saline; 2) positive control bivalirudin group (6 mg/kg); 3) positive control enoxaparin group (200 U/kg); 4) Low dose group of polypeptide 2 (3.0 mg/kg); 5) Medium dose group of polypeptide 2 (6.0 mg/kg); 6) High dose group of polypeptide 2 (12.0 mg/kg). Polypeptide 2 was administered by single intravenous administration. According to the body weight in kilograms of the rabbits, the sample was dissolved in 2 mL of physiological saline for single bolus injection. The sham operation group was administered with the same volume of physiological saline.
2.1 Surgery preparation of rabbits: Rabbit were sent to the laboratory for accommodation for one day, and then screened at first. Blood samples were taken from arteries within ears, which were subjected to blood routine analysis and APTT examinations, and the rabbits with a normal blood hemogram and APTT between 16 and 28 seconds were selected for experiments. The rabbits to be tested were fasted with free access to water in the night before the experiment. The rabbits were anesthetized with intravenous injection of 3% sodium pentobarbital solution at 1 ml/kg, fixed in the supine position, and then, the common carotid artery at one side, external jugular vein, femoral artery at one side, femoral vein, and forelimb vein at one side were isolated. The forelimb vein was subjected to intubation for administration; the left femoral vein was subjected to intubation for blood collection to determine the platelet aggregation rate: the femoral artery was used for the establishment of an arterial thrombosis model; the common carotid artery and external jugular vein were used for the establishment of an arterial and venous bypass thrombosis model.
2.2 Arterial and venous bypass thrombosis (AVST) model: An arterial and venous shunt consists of two casings, of which an outer casing has a length of about 8 cm and an inner diameter of 7.9 mm, the inner casing has a length of about 2.5 cm and an inner diameter of 4.8 mm. The polyethylene tube was charged with a silk thread about 8 cm long and filled with […] heparin solution, of which one end was inserted into the left femoral artery and the other end was inserted into the right femoral vein. After administration for 30 seconds, the blood flow was released, which flowed from the left artery to the polyethylene tube and returned to the right vein. After 15 minutes, the blood flow was interrupted, the silk thread was quickly removed and placed on an aluminum foil (size: 2.5 cm×2.5 cm), measured for its wet weight, and kept overnight at room temperature and weighed for its dry weight.
The femoral arteries in the […] and both sides in the rabbits were isolated and stabilized for 10 min before the administration was started. An AT model was established by covering the femoral artery with 50% FeCl3 filter paper while administration, and the filter paper was removed after covering for 15 minutes. An AVST model was established and it was taken out after […]. Observation was continued for 120 min after administration until the experiment was completed.
3.4 Thrombus weight: After the experiment was completed, the segment of the blood vessels in which there had been thrombus formation was cut off, weighed for the wet weight, and then kept overnight at room temperature and weighed for the dry weight. The thrombosis inhibitory rate was calculated with a calculation equation as follows: […]

[2] = tested on: blood coagulation function; experiment: PT in rats, intravenous maintenance administration; type: in vivo, rat
Description: (§2) 160 Rats were randomly divided into groups, 5 to 10 rats per group.
(§3) According to the body weight in kilograms of the rats, the first dose of a drug was dissolved in 2 mL of physiological saline for single bolus injection. The maintaining dose of drug was dissolved in 9 ml of physiological saline, and placed in a double-channel micro-injection pump, which was dripped off within 90 minutes at a dripping speed of 0.1 ml/min. The sham operation group was administered with the same volume of physiological saline.
(§4) The rats were fasted with free access to water overnight before the experiment.
The blood samples were taken before administration, administration for 60 minutes, and before termination of administration, respectively, to determine their activated partial thromboplastin time (APTT) and prothrombin time (PT). The blood samples were centrifuged at 3510 rpm for 8 minutes to obtain platelet poor plasma (PPP). Reagent reconstruction and preservation were performed according to the operation requirements of the kit. Immediately after each blood sample was placed into a test cup and then PT and APTT reagents were added, the test was started. After the test was completed, results were recorded.
5.1 Determination of blood coagulation function: The blood samples were taken 0 min before administration, administration for 60 minutes, and termination of administration, respectively, and then determined using a platelet-aggregation coagulation factor analyzer for the blood coagulation functions (PT. APTT) and ACT.

[3] = tested on: blood coagulation function; experiment: TT in rabbits, single intravenous administration; type: in vivo, rabbit; conditions: single iv 6.0 mg/kg
Description: as §1
3.2 Determination of blood coagulation function: Blood samples were taken and the blood function (PT, TT, APTT) was determined at 0 min before administration, at points of 5 min and 15 min after administration, using a platelet-aggregation coagulation factor analyzer. Blood samples were centrifuged at 3510 rpm for 8 min to obtain platelet poor plasma (PPP). Reagent reconstruction and preservation were performed according to the operation requirements of the kit. Immediately after each blood sample was placed into a test cup and then added with PT. TT and APTT reagents, the test was started. After the test was completed, results were recorded.

[4] = tested on: FeCl3-induced inferior vena cava thrombosis; experiment: FeCl3-induced inferior vena cava thrombosis in rats; type: in vivo, rat
Description: as §2, §3, §4
15 minutes later, the filter paper was removed. And then, after observation for 45 minutes, the blood vessels and local tissues were rinsed with warm physiological saline, and the covered blood vessels were cut off. The thrombus which attached to the blood vessel walls was peeled off to be weighed on a tin foil for its wet weight, and then weighed overnight at room temperature for its dry weight. The administration was continued until the completion of the experiment.
After the experiment was completed, the segment of the blood vessels in which there had been thrombus formation was cut off, weighed for the wet weight, and then weighed overnight at room temperature for the dry weight of the thrombus. Thrombosis inhibitory rate was calculated.

[5] = iv 0.08 + 0.325 (mg/kg + mg/kg/h)
[6] = iv 0.17 + 0.65 (mg/kg + mg/kg/h)
[7] = iv 0.35 + 1.3 (mg/kg + mg/kg/h)

“Bivalirudin: Bivalirudin for Injection, Xi'an Xintong Pharmaceutical Research Co., Ltd.; positive control thrombin inhibitor” was tested. Which Thrombus dry weight [1] did it give?
The Thrombus dry weight was 20.8 ± 6.3 mg.

What about the Thrombus inhibitory rate [1] of the same substance?
The Thrombus inhibitory rate was 11.86%.

What about the “PT Before administration” value [2, 5] of the same substance?
The value was 10.42 ± 1.16.

What about the “PT Fold of change” value [2, 5] of the same substance?
Its value is 1.82 ± 0.24.

What about the “PT administration for 60 minutes” value [2, 5] of the same substance?
Its value is 18.95 ± 3.36.

What about the “PT Before administration” value [2, 6] of the same substance?
The value was 11.16 ± 1.28.

What about the “PT Fold of change” value [2, 6] of the same substance?
Its value is 1.99 ± 0.78.

What about the “PT administration for 60 minutes” value [2, 6] of the same substance?
Its value is 21.85 ± 7.38.

And the “PT Before administration” value [2, 7]?
Its value is 11.73 ± 1.48.

What about the “PT Fold of change” value [2, 7] of the same substance?
The value was 3.54 ± 1.45.

What about the “PT administration for 60 minutes” value [2, 7] of the same substance?
Its value is 42.58 ± 21.94.

And the “PT Before administration” value ([2]; iv 0.5 + 2 (mg/kg + mg/kg/h))?
The value was 7.87 ± 1.93.

And the “PT Fold of change” value ([2]; iv 0.5 + 2 (mg/kg + mg/kg/h))?
The value was 4.46 ± 1.47.

What about the “PT administration for 60 minutes” value ([2]; iv 0.5 + 2 (mg/kg + mg/kg/h)) of the same substance?
Its value is 39.13 ± 7.30.

And the TT ([3]; Administration for 5 min)?
Its TT is greater than 180 s.

What about the TT ([3]; Administration for 15 min) of the same substance?
Its TT is greater than 180 s.

And the TT ([3]; Before administration)?
The TT was 22.4 ± 5.2 S.

And the “Inferior vena cava thrombosis Inhibition percentage” value [4, 5]?
Its value is 20.03%.

What about the “Inferior vena cava thrombosis Thrombus weight” value [4, 5] of the same substance?
The value was 18.03 ± 1.39 mg.

What about the “Inferior vena cava thrombosis Inhibition percentage” value [4, 6] of the same substance?
Its value is 35.97%.

What about the “Inferior vena cava thrombosis Thrombus weight” value [4, 6] of the same substance?
Its value is 14.43 ± 3.84 mg.

What about the “Inferior vena cava thrombosis Inhibition percentage” value [4, 7] of the same substance?
Its value is 68.67%.

And the “Inferior vena cava thrombosis Thrombus weight” value [4, 7]?
Its value is 7.06 ± 4.07 mg.

What about the “Inferior vena cava thrombosis Inhibition percentage” value ([4]; iv 0.5 + 2 (mg/kg + mg/kg/h)) of the same substance?
The value was 67.79%.

What about the “Inferior vena cava thrombosis Thrombus weight” value ([4]; iv 0.5 + 2 (mg/kg + mg/kg/h)) of the same substance?
Its value is 7.26 ± 3.15 mg.
